In publication PMC4865847, “Putative histidine kinase inhibitors with antibacterial effect against multi-drug resistant clinical isolates identified by in vitro and in silico screens” (Scientific Reports, 2016):
In brackets after ≈: the same amount, converted by molar mass. Read-outs that look alike come from different tables or passages of the source.

Tests used:
S. aureus PhoR (PhoR^S) = S. aureus PhoR (PhoR^S) (Staphylococcus aureus, UniProt Q2FXN7); assay: In vitro autophosphorylation kinase assay with γ-32P-ATP, PhoR^S; assay type: biochemical; details: for IC50: autophosphorylation, one time point (30 sec), 10% DMSO; for inhibition at 2000 µM: read-out: inhibition of PhoR^S autophosphorylation
S. aureus PhoR (PhoR^S), sequence (Q2FXN7 entry or part of it): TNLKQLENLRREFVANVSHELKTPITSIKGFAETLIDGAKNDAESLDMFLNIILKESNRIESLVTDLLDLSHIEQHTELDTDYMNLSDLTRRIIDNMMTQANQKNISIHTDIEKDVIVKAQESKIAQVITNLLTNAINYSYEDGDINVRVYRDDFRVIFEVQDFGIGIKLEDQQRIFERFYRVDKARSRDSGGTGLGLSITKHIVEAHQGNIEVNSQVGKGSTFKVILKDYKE
Experimental: (§1) To evaluate the inhibitory capacity of selected hits from DSF, SBVS and LBSS in vitro autophosphorylation kinase assays with γ-^32P-ATP were performed as previously described. Ligands were dissolved in 100% DMSO. […] Controls lacking ligands contained an equal concentration of DMSO. Inhibition of autophosphorylation was determined by incubating 0.12 mg/ml (≈4 μM) HK and up to 20 mM fragment in kinase buffer (50 mM Tris HCl, pH 8.5, 50 mM KCl, 5 mM MgCl2, 0.5 mM EDTA and 0.1 mM DTT). Autophosporylation reactions were initiated by addition of 0.1 μCi/μl γ-^32P-ATP containing from 0.03 to 0.06 μM ATP (final concentrations). Autophosphorylation was quenched with 2xSDS-PAGE sample buffer supplemented with 50 mM EDTA. Samples were applied without heating to 15% (w/v) Tris-glycine SDS-polyacrylamide gels. After electrophoresis, the bottoms of the gels were removed to lower the background from the unincorporated radiolabeled ATP. Gels were dried without staining on a Bio-Rad Gel Air drying system and the phosphorylated protein was quantified by phosphor-imaging. Prism GraphPad was used for curve fitting and statistical analysis.

E. coli PhoR (PhoR^E) = target: T1, E. coli PhoR (PhoR^E) (Escherichia coli, UniProt P08400); assay: In vitro autophosphorylation kinase assay with γ-32P-ATP, PhoR^E; assay type: biochemical; details: for IC50: autophosphorylation, one time point (30 sec), 10% DMSO; for inhibition at 2000 µM: 2 mM, 30 sec, compared to negative control
T1 construct: The catalytic portion (DHp and CA domain) of E. coli PhoR (PhoR^E); made in house; host or cells: E. coli RIL
T1 sequence (P08400 210-425): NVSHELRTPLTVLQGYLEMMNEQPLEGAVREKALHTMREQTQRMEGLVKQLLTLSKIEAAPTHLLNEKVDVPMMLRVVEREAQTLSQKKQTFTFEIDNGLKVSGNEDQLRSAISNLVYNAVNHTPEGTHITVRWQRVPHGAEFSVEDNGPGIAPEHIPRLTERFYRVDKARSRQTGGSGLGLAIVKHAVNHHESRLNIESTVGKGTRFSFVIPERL
Experimental: as §1, with “Samples were applied without heating to 15% (w/v) Tris-glycine SDS-polyacrylamide gels.” left out

Staphylococcus aureus = assay: Antibacterial susceptibility testing (MIC/MBC), S. aureus; assay type: cell-based; details: Staphylococcus aureus
Experimental: (§2) Minimal inhibitory concentrations (MICs) were determined following a standard double-dilution method. […] For S. pneumoniae MICs were determined by adapting the standard double-dilution method to anaerobic conditions and of this microorganism (use of Todd Hewitt Yeast extract with 200 U/mL of catalase and continuous monitoring of growth).

[1] = system: Staphylococcus epidermidis; assay: Antibacterial susceptibility testing (MIC/MBC), S. epidermidis; assay type: cell-based; details: Staphylococcus epidermidis
Experimental: as §2

Escherichia coli = assay: Antibacterial susceptibility testing (MIC/MBC), E. coli; assay type: cell-based; details: Escherichia coli; for MIC: read-out: MIC E. coli CFT 073; for MBC: read-out: MBC E. coli CFT 073
Experimental: as §2

S. pneumoniae WalK = target: T2, S. pneumoniae WalK (Streptococcus pneumoniae, UniProt Q8DPL8); assay: In vitro autophosphorylation kinase assay with γ-32P-ATP, WalK; assay type: biochemical; details: autophosphorylation, one time point (30 sec), 10% DMSO
T2 construct: WalK (amino acids from 208 to 449); N-terminal His6-3C site of vector pOPINF (own knowledge of the vector); made in house; host or cells: E. coli RIL
T2 sequence (Q8DPL8 208-449): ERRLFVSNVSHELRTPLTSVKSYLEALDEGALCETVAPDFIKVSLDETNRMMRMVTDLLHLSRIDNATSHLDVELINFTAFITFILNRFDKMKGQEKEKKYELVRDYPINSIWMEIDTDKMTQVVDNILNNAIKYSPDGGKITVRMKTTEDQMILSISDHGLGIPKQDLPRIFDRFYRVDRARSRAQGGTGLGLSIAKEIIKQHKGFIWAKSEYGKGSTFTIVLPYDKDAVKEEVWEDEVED
Experimental: as §1, with “Samples were applied without heating to 15% (w/v) Tris-glycine SDS-polyacrylamide gels.” left out

[2] = DSM20231, strain DSM 20231, read-out: MIC S. aureus DSM 20231
[3] = DSM20044, strain DSM 20044, read-out: MIC S. epidermidis DSM 20044
[4] = DSM20231, read-out: MIC S. aureus DSM 20231
[5] = DSM20044, read-out: MIC S. epidermidis DSM 20044

Compound	IC50 (S. aureus PhoR (PhoR^S); IC50 PhoR^S)	IC50 (E. coli PhoR (PhoR^E); IC50 PhoR^E)	MIC (Staphylococcus aureus; [2])	MIC [1, 3]	MIC (Escherichia coli; strain CFT 073)	other results
CC(=O)c1cccc(NC(=O)N(C)Cc2ccccc2)c1 [S1.25]	> 2 mM	> 2 mM	> 500 µg/mL	> 500 µg/mL	> 500 µg/mL	–
CC(=O)Nc1ccc(C(=O)C(O)c2ccc(NC(C)=O)cc2)cc1 (centres unmarked) [S1.12]	> 2 mM	> 2 mM	> 500 µg/mL	> 500 µg/mL	> 500 µg/mL	–
Nc1nc(-c2ccc(Cl)cc2)cs1 [F1.2]	–	> 2 mM	> 500 µg/mL	> 500 µg/mL	> 500 µg/mL	IC50 (S. pneumoniae WalK; IC50 WalK): > 2 mM
CC(=O)Nc1ccc(NC(=O)c2cccc(F)c2)cc1 [S1.3]	> 2 mM	> 2 mM	> 500 µg/mL	> 500 µg/mL	> 500 µg/mL	–
CC(=O)Nc1cccc(C=Cc2ccc([N+](=O)[O-])cc2)c1 [S1.11]	–	< 2 mM	> 500 µg/mL	> 500 µg/mL	> 500 µg/mL	IC50 (S. aureus PhoR (PhoR^S); read-out: IC50 PhoR^S): < 2 mM; inhibition at 2000 µM (S. aureus PhoR (PhoR^S)): > 75%; inhibition at 2000 µM (E. coli PhoR (PhoR^E)): > 75%
CC(=O)Nc1ccc2c(c1)Cc1cc(Br)ccc1-2 [S1.20]	> 2 mM	–	–	–	–	IC50 (E. coli PhoR (PhoR^E); read-out: IC50 PhoR^E): > 2 mM; MIC (Staphylococcus aureus; [4]): > 500 µg/mL; MIC [1, 5]: > 500 µg/mL; MIC (Escherichia coli): > 500 µg/mL
CC(C)(C)c1ccc(NS(=O)(=O)c2ccc(N)cc2)cc1 [S1.15]	–	> 2 mM	> 500 µg/mL	> 500 µg/mL	> 500 µg/mL	IC50 (S. aureus PhoR (PhoR^S); read-out: IC50 PhoR^S): < 2 mM; inhibition at 2000 µM (S. aureus PhoR (PhoR^S)): > 75%; inhibition at 2000 µM (E. coli PhoR (PhoR^E)): > 40%
COc1ccc(-c2csc(N)n2)cc1OC [F1.9]	–	> 2 mM	> 500 µg/mL	> 500 µg/mL	> 500 µg/mL	IC50 (S. pneumoniae WalK; IC50 WalK): > 2 mM
CC(=O)Nc1ccc(-c2ccc(F)cc2)cc1 [S1.2]	–	< 2 mM	> 500 µg/mL	> 500 µg/mL	> 500 µg/mL	IC50 (S. aureus PhoR (PhoR^S); read-out: IC50 PhoR^S): < 2 mM; inhibition at 2000 µM (S. aureus PhoR (PhoR^S)): > 75%; inhibition at 2000 µM (E. coli PhoR (PhoR^E)): > 75%
Cn1c2ccccc2c2ccccc21 [F2.6]	–	–	–	–	–	IC50 (E. coli PhoR (PhoR^E); read-out: IC50 PhoR^E): > 2 mM; IC50 (S. pneumoniae WalK; read-out: IC50 WalK): > 2 mM; MIC (Staphylococcus aureus; [4]): > 500 µg/mL; MIC [1, 5]: > 500 µg/mL; MBC (Escherichia coli): 500 µg/mL (≈ 2760 µM); MIC (Escherichia coli): > 500 µg/mL
Nc1nc(-c2ccc(O)cc2)cs1 [F1.1]	–	–	–	–	–	IC50 (E. coli PhoR (PhoR^E); read-out: IC50 PhoR^E): > 2 mM; IC50 (S. pneumoniae WalK; read-out: IC50 WalK): > 2 mM; MBC (Staphylococcus aureus; DSM20231, read-out: MBC S. aureus DSM 20231): > 500 µg/mL; MBC (Escherichia coli): > 500 µg/mL
CC(=O)Nc1cccc(OCc2cccc([N+](=O)[O-])c2)c1 [S1.17]	> 2 mM	> 2 mM	> 500 µg/mL	> 500 µg/mL	> 500 µg/mL	–
CC(=O)Nc1cccc(Cc2cccc(NC(C)=O)c2)c1 [S1.4]	> 2 mM	> 2 mM	> 500 µg/mL	> 500 µg/mL	> 500 µg/mL	–
O=c1c2ccccc2[nH]c2ccc(O)cc12 [F2.2]	–	< 2 mM	> 500 µg/mL	> 500 µg/mL	> 500 µg/mL	inhibition at 2000 µM (E. coli PhoR (PhoR^E)): > 50%; IC50 (S. pneumoniae WalK; IC50 WalK): > 2 mM
c1ccc2c(c1)[nH]c1ccccc12 [F2.5]	–	–	–	–	–	IC50 (E. coli PhoR (PhoR^E); read-out: IC50 PhoR^E): > 2 mM; IC50 (S. pneumoniae WalK; read-out: IC50 WalK): > 2 mM; MIC (Staphylococcus aureus; [4]): > 500 µg/mL; MIC [1, 5]: > 500 µg/mL; MIC (Escherichia coli): > 500 µg/mL
COc1cc(NCc2ccccc2)ccc1NC(C)=O [S1.18]	> 2 mM	> 2 mM	> 500 µg/mL	> 500 µg/mL	> 500 µg/mL	–
CC(=O)Nc1cccc(OCc2ccc([N+](=O)[O-])cc2)c1 [S1.8]	> 2 mM	> 2 mM	> 500 µg/mL	> 500 µg/mL	> 500 µg/mL	–
